Reference: publication PMC6942214 (Bioorganic & medicinal chemistry letters, 2019)

Tests used:
EU-1 ALL = experiment: WST cytotoxicity assay in EU-1 leukemia cells; format: cell-based; conditions: read-out: IC50 (μM) EU-1 ALL
MDM2 [1] = target: T1, MDM2 (Homo sapiens, UniProt Q00987); conditions: EU-1 ALL cells; cited from earlier work
p53 [2] = conditions: EU-1 ALL cells, dose- and time-dependent; cited from earlier work
normal cells = conditions: at therapeutic concentration, preliminary results; cited from earlier work
[3] = Water solubility by an HPLC method; format: physicochemical; conditions: ratio of water solubilities
[4] = test system: cell lysate of EU-1 leukemia cells; experiment: Prodrug activation in non-denatured EU-1 cell lysate; format: in vitro ADME
MDM2 [5] = target: T1, MDM2; experiment: Western blot of MDM2 in EU-1 cells; format: cell-based
p53 [6] = experiment: Western blot of p53 in EU-1 cells; format: cell-based

T1 sequence (Q00987 whole entry): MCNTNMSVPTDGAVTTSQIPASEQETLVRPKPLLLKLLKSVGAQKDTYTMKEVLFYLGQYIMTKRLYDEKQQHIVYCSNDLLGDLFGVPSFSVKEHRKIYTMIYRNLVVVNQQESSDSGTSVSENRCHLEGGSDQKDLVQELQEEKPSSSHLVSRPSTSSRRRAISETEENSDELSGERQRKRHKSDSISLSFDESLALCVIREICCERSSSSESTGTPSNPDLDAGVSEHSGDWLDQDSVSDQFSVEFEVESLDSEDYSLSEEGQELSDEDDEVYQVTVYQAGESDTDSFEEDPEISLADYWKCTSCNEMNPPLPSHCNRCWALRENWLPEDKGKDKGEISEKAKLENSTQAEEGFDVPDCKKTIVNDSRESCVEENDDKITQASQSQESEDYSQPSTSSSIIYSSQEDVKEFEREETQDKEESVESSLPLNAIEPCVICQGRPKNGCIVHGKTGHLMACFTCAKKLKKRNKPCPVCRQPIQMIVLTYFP

O=C(CCl)Nc1cc(O)c2c(c1)C(=O)c1cccc(O)c1C2=O [BW-AQ-101]
IC50 (EU-1 ALL): 0.83 µM
effect on MDM2 (MDM2 [1]): inhibited MDM2
effect on p53 (p53 [2]): induced activation of p53
toxicity to normal cells (normal cells): minimal or no toxicity

Cl.N[C@@H](Cc1ccccc1)C(=O)OCCOc1cccc2c1C(=O)c1c(OCCOC(=O)[C@@H](N)Cc3ccccc3)cc(NC(=O)CCl)cc1C2=O [Compound 9f]
fold greater solubility than parent drug BW-AQ-238 [3]: over 11000 fold

CC(C)[C@H](N)C(=O)OCCOc1cccc2c1C(=O)c1c(OCCOC(=O)[C@@H](N)C(C)C)cc(NC(=O)CCl)cc1C2=O.Cl [Compound 9c]
time within which the ester bond was cleaved to give parent drug [4]: ≤ 15 min

O=C(CCl)Nc1cc(OCCO)c2c(c1)C(=O)c1cccc(OCCO)c1C2=O [BW-AQ-238]
cytoplasmic MDM2 level (Western blot) (MDM2 [5]; 0.8 μM, 15-h time point): significantly down-regulated
MDM2 level, time course (Western blot) (MDM2 [5]; 1 μM): Down-regulation of MDM2 could be detected after 4-h treatment
p53 level (Western blot) (p53 [6]; 0.8 μM, 15-h time point): increased
p53 level, time course (Western blot) (p53 [6]; 1 μM): elevated after 4 hours of treatment
